Measured values: US10954219B2, “1,3-benzodioxole derivative” (DAIICHI SANKYO COMPANY, LIMITED, priority 2014, dated 2021)
Structures can show the parent of a compound that is named as a salt.

Assays:
PRC2-EZH2 (WT EZH2) = target: T1, PRC2-EZH2 (WT EZH2) (Homo sapiens, UniProt Q15910); assay: EZH2 methyltransferase inhibitory activity evaluation; assay type: biochemical; conditions: PRC2-EZH2, biotin-H3 peptide, 3H-SAM, 2 hours
T1 construct: made in house

PRC2-EZH1 (WT EZH1) = PRC2-EZH1 (WT EZH1) (Homo sapiens, UniProt Q92800); assay: EZH1 methyltransferase inhibitory activity evaluation
PRC2-EZH1 (WT EZH1), sequence (Q92800 whole entry): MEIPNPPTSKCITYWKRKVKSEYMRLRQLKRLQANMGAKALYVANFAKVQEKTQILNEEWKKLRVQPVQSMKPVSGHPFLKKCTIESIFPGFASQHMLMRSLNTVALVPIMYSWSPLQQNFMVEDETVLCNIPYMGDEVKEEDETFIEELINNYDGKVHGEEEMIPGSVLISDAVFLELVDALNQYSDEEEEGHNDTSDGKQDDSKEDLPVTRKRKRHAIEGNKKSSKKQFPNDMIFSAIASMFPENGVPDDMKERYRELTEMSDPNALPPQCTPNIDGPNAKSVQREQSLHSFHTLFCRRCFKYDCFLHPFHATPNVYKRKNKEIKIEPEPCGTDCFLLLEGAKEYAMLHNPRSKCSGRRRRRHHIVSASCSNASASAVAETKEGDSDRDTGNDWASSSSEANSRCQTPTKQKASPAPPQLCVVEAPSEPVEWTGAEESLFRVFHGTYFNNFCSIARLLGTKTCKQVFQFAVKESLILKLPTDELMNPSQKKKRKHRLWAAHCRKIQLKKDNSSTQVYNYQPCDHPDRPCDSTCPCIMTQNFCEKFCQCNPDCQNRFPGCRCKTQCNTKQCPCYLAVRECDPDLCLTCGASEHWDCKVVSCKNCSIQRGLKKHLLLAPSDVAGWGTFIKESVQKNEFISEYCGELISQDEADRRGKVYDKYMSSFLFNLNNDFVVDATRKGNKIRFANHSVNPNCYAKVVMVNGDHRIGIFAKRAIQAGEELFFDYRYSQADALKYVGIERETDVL
PRC2-EZH1 (WT EZH1), sequence (O75530 whole entry partner): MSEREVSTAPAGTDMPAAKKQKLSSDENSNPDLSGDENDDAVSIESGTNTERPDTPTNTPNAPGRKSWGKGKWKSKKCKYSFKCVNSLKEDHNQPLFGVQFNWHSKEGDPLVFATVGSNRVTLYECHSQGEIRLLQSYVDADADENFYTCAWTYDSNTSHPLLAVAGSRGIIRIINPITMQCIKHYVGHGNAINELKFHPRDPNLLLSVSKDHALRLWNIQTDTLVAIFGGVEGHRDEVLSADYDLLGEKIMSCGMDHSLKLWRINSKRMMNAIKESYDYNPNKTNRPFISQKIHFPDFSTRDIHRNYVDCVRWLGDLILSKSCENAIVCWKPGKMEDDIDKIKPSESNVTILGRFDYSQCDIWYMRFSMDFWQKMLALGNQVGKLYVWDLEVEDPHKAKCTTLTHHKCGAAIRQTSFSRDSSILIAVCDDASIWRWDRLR
PRC2-EZH1 (WT EZH1), sequence (Q15022 whole entry partner): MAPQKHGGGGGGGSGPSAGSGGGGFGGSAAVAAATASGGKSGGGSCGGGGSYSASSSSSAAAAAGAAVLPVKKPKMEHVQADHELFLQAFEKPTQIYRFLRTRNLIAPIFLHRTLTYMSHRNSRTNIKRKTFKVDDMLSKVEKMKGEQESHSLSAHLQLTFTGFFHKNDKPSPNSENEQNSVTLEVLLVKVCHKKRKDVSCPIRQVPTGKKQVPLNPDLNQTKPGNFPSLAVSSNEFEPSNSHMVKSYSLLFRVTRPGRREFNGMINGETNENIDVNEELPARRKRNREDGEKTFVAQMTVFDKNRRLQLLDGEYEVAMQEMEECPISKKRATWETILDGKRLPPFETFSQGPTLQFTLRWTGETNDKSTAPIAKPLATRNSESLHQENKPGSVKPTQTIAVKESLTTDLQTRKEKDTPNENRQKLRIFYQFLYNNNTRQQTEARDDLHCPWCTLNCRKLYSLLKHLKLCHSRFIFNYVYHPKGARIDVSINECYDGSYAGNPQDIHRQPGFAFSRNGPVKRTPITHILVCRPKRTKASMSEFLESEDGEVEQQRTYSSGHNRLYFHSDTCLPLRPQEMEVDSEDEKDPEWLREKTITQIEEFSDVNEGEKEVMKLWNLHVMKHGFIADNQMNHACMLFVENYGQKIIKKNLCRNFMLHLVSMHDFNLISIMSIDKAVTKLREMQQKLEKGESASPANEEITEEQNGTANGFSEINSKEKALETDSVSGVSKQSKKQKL
PRC2-EZH1 (WT EZH1), sequence (Q09028 whole entry partner): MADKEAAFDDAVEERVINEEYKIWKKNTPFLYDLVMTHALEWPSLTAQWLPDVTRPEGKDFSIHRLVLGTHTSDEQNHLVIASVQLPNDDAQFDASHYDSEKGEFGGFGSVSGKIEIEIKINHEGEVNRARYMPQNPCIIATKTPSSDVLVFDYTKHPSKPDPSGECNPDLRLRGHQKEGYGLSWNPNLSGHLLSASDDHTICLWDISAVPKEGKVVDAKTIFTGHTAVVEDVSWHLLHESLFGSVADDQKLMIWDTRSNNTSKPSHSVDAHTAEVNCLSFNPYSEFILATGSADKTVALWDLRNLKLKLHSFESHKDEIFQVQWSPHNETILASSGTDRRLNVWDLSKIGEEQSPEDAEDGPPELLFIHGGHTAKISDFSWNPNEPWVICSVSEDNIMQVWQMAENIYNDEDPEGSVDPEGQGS
PRC2-EZH1 (WT EZH1), sequence (Q6ZN18 whole entry partner): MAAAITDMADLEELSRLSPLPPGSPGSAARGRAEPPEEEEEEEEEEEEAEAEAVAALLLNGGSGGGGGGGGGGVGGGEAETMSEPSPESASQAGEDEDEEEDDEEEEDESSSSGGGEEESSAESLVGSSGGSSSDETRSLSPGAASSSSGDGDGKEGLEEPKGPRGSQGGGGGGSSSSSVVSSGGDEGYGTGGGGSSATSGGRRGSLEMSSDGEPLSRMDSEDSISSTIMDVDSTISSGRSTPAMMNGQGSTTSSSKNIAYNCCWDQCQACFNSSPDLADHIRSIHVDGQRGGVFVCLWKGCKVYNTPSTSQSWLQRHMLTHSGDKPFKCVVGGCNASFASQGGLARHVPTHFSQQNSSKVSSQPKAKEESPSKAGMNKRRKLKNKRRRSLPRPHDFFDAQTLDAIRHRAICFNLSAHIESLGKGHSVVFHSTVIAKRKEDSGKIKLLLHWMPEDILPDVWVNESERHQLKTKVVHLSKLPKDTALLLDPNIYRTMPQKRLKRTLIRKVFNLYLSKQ

[1] = test system: Intracellular H3K27me3 in HCT116 cells; assay: Intracellular H3K27me3 inhibitory activity evaluation; assay type: cell-based; conditions: Homo sapiens, HCT-116, 72 h, 3 days, AlphaLISA, read-out: Test Example 3 H3K27me3 inhibition (HCT116) IC50

T1 sequence (Q15910 whole entry): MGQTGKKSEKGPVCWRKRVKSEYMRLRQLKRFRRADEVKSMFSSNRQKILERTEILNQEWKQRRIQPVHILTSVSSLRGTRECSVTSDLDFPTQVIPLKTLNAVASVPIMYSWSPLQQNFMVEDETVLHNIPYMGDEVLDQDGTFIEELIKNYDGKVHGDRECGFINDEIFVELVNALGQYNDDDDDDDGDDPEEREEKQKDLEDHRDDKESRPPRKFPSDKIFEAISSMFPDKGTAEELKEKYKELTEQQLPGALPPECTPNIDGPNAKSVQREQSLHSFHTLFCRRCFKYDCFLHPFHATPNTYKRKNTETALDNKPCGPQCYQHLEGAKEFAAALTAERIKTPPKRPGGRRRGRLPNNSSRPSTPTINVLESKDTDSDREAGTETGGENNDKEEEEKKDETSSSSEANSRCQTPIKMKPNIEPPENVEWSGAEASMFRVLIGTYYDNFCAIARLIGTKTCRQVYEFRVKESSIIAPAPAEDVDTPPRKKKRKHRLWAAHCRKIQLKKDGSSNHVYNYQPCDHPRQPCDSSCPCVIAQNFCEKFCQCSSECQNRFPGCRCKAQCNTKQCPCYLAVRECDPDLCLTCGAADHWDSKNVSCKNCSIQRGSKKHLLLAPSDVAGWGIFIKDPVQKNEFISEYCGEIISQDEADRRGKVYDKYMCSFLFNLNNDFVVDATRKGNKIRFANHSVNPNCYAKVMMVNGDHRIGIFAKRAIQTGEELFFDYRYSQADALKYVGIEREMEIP
T1 sequence (O75530 whole entry partner): as the sequence (O75530 whole entry partner) above
T1 sequence (Q15022 whole entry partner): as the sequence (Q15022 whole entry partner) above

IC50 (PRC2-EZH2 (WT EZH2)) [nM]	IC50 (PRC2-EZH1 (WT EZH1)) [nM]	IC50 [1] [nM]	SMILES
17	23	2.8	CCN(C)[C@H]1CC[C@H](C2(C)Oc3c(Br)cc(C(=O)NCc4c(C)cc(C)[nH]c4=O)c(C)c3O2)CC1 (relative stereo) [Example 20, 7-Bromo-N-[(4,6-dimethyl-2-oxo-1,2-dihydropyridin-3-yl)methyl]-2-[trans-4-[N-ethyl(N-methyl)amino]cyclohexyl]-2,4-dimethyl-1,3-benzodioxole-5-carboxamide]
9.4	68	16	Cc1cc(C)c(CNC(=O)c2cc(Br)c3c(c2C)O[C@@](C)(CO[C@H]2CCN(C)C2)O3)c(=O)[nH]1 [Example 29, (2R)-7-Bromo-N-[(4,6-dimethyl-2-oxo-1,2-dihydropyridin-3-yl)methyl]-2,4-dimethyl-2-[[(3S)-1-methylpyrrolidin-3-yl]oxymethyl]-1,3-benzodioxole-5-carboxamide]
18	60	10	CCN(CC)[C@H]1CC[C@H](C2(C)Oc3c(Br)cc(C(=O)NCc4c(C)cc(C)[nH]c4=O)c(C)c3O2)CC1 (relative stereo) [Example 21, 7-Bromo-2-[trans-4-(diethylamino)cyclohexyl]-N-[(4,6-dimethyl-2-oxo-1,2-dihydropyridin-3-yl)methyl]-2,4-dimethyl-1,3-benzodioxole-5-carboxamide]
22	23	3.8	Cc1cc(C)c(CNC(=O)c2cc(Br)c3c(c2C)OC(C)(C[C@H]2CC[C@@H](N(C)C)CC2)O3)c(=O)[nH]1 (relative stereo) [Example 27, 7-Bromo-2-[[cis-4-(dimethylamino)cyclohexyl]methyl]-N-[(4,6-dimethyl-2-oxo-1,2-dihydropyridin-3-yl)methyl]-2,4-dimethyl-1,3-benzodioxole-5-carboxamide]
18	110	9	CCN1CCC([C@@]2(C)Oc3c(Cl)cc(C(=O)NCc4c(C)cc(C)[nH]c4=O)c(C)c3O2)CC1 [Example 31, (2R)-7-Chloro-N-[(4,6-dimethyl-2-oxo-1,2-dihydropyridin-3-yl)methyl]-2-(1-ethyl-4-piperidyl)-2,4-dimethyl-1,3-benzodioxole-5-carboxamide]
16	21	5.9	Cc1cc(C)c(CNC(=O)c2cc(Br)c3c(c2C)OC(C)([C@H]2CC[C@H](N)CC2)O3)c(=O)[nH]1 (relative stereo) [Example 13, 2-(trans-4-Aminocyclohexyl)-7-bromo-N-[(4,6-dimethyl-2-oxo-1,2-dihydropyridin-3-yl)methyl]-2,4-dimethyl-1,3-benzodioxole-5-carboxamide]
22	27	1.7	C=Cc1cc(C(=O)NCc2c(C)cc(C)[nH]c2=O)c(C)c2c1OC(C)([C@H]1CC[C@H](N(C)C)CC1)O2 (relative stereo) [Example 66, 2-[trans-4-(Dimethylamino)cyclohexyl]-N-[(4,6-dimethyl-2-oxo-1,2-dihydropyridin-3-yl)methyl]-2,4-dimethyl-7-vinyl-1,3-benzodioxole-5-carboxamide]
30	660	26	Cc1cc(C)c(CNC(=O)c2cc(Br)c3c(c2C)OC(C)(C24CC(N(C)C)(C2)C4)O3)c(=O)[nH]1 (stereo not drawn) [Example 3, 7-Bromo-2-[3-(dimethylamino)-1-bicyclo[1.1.1]pentanyl]-N-[(4,6-dimethyl-2-oxo-1,2-dihydropyridin-3-yl)methyl]-2,4-dimethyl-1,3-benzodioxole-5-carboxamide]
7.9	77	14	Cc1cc(C)c(CNC(=O)c2cc(Br)c3c(c2C)OC(C)(CN2CCC(N(C)C)CC2)O3)c(=O)[nH]1 (stereo not drawn) [Example 44, 7-Bromo-2-[[4-(dimethylamino)-1-piperidyl]methyl]-N-[(4,6-dimethyl-2-oxo-1,2-dihydropyridin-3-yl)methyl]-2,4-dimethyl-1,3-benzodioxole-5-carboxamide]

Further lines, the compound ahead of its results:

SMILES	IC50 (PRC2-EZH2 (WT EZH2)) [nM]	IC50 (PRC2-EZH1 (WT EZH1)) [nM]	IC50 [1] [nM]
CCN1CCN(c2ccc(-c3cc(C(=O)NCc4c(C)cc(C)[nH]c4=O)c(C)c4c3OC(C)(C3CCOC3)O4)cn2)CC1 (stereo not drawn) [Example 57, N-[(4,6-Dimethyl-2-oxo-1,2-dihydropyridin-3-yl)methyl]-7-[6-(4-ethylpiperazin-1-yl)-3-pyridyl]-2,4-dimethyl-2-(tetrahydrofuran-3-yl)-1,3-benzodioxole-5-carboxamide]	36	110	12
Cc1cc(C)c(CNC(=O)c2cc(-c3cnn(C)c3)c3c(c2C)OC(C)([C@H]2CC[C@H](N(C)C)CC2)O3)c(=O)[nH]1 (relative stereo) [Example 65, 2-[trans-4-(Dimethylamino)cyclohexyl]-N-[(4,6-dimethyl-2-oxo-1,2-dihydropyridin-3-yl)methyl]-2,4-dimethyl-7-(1-methylpyrazol-4-yl)-1,3-benzodioxole-5-carboxamide hydrochloride]	18	23	13
Cc1cc(C)c(CNC(=O)c2cc(C3=CCOCC3)c3c(c2C)OC(C)([C@H]2CC[C@H](N(C)C)CC2)O3)c(=O)[nH]1 (relative stereo) [Example 62, 7-(3,6-Dihydro-2H-pyran-4-yl)-2-[trans-4-(dimethylamino)cyclohexyl]-N-[(4,6-dimethyl-2-oxo-1,2-dihydropyridin-3-yl)methyl]-2,4-dimethyl-1,3-benzodioxole-5-carboxamide]	6.6	11	5.5
CCc1cc(C)[nH]c(=O)c1CNC(=O)c1cc(-c2cnn(C)c2)c2c(c1C)OC(C)([C@H]1CC[C@H](N(C)C)CC1)O2 (relative stereo) [Example 75, 2-[trans-4-(Dimethylamino)cyclohexyl]-N-[(4-ethyl-6-methyl-2-oxo-1,2-dihydropyridin-3-yl)methyl]-2,4-dimethyl-7-(1-methylpyrazol-4-yl)-1,3-benzodioxole-5-carboxamide hydrochloride]	26	21	11
Cc1cc(C)c(CNC(=O)c2cc(Cl)c3c(c2Cl)OC(C)([C@@H]2CC[C@@H](N(C)C)CO2)O3)c(=O)[nH]1 (stereo partly drawn) [Example 54, 4,7-Dichloro-2-[(2S,5R)-5-(dimethylamino)tetrahydropyran-2-yl]-N-[(4,6-dimethyl-2-oxo-1,2-dihydropyridin-3-yl)methyl]-2-methyl-1,3-benzodioxole-5-carboxamide]	27	210	3.8
CCN1CCN(c2ccc(-c3cc(C(=O)NCc4c(C)cc(C)[nH]c4=O)c(C)c4c3OC(CC)(C3CCOCC3)O4)cn2)CC1 (stereo not drawn) [Example 55, N-[(4,6-Dimethyl-2-oxo-1,2-dihydropyridin-3-yl)methyl]-2-ethyl-7-[6-(4-ethylpiperazin-1-yl)-3-pyridyl]-4-methyl-2-(tetrahydropyran-4-yl)-1,3-benzodioxole-5-carboxamide]	28	53	11
COc1cc(C(=O)NCc2c(C)cc(C)[nH]c2=O)c(C)c2c1OC(C)([C@H]1CC[C@H](N(C)C)CC1)O2 (relative stereo) [Example 50, 2-[trans-4-(Dimethylamino)cyclohexyl]-N-[(4,6-dimethyl-2-oxo-1,2-dihydropyridin-3-yl)methyl]-7-methoxy-2,4-dimethyl-1,3-benzodioxole-5-carboxamide]	20	53	7.1
Cc1cc(C)c(CNC(=O)c2cc(Cl)c3c(c2C)OC(C)(C2CC4(CC(N(C)C)C4)C2)O3)c(=O)[nH]1 (stereo not drawn) [Example 30, 7-Chloro-2-[2-(dimethylamino)spiro[3.3]heptan-6-yl]-N-[(4,6-dimethyl-2-oxo-1,2-dihydropyridin-3-yl)methyl]-2,4-dimethyl-1,3-benzodioxole-5-carboxamide]	21	180	16
Cc1cc(C)c(CNC(=O)c2cc(-c3cccnc3)c3c(c2C)OC(C)([C@H]2CC[C@H](N(C)C)CC2)O3)c(=O)[nH]1 (relative stereo) [Example 64, 2-[trans-4-(Dimethylamino)cyclohexyl]-N-[(4,6-dimethyl-2-oxo-1,2-dihydropyridin-3-yl)methyl]-2,4-dimethyl-7-(3-pyridyl)-1,3-benzodioxole-5-carboxamide]	14	22	6.8
CCN1CCN(c2ccc(-c3cc(C(=O)NCc4c(C)cc(C)[nH]c4=O)c(C)c4c3OC(C)([C@H]3CC[C@H](N(C)C)CC3)O4)cn2)CC1 (relative stereo) [Example 61, 2-[trans-4-(Dimethylamino)cyclohexyl]-N-[(4,6-dimethyl-2-oxo-1,2-dihydropyridin-3-yl)methyl]-7-[6-(4-ethylpiperazin-1-yl)-3-pyridyl]-2,4-dimethyl-1,3-benzodioxole-5-carboxamide]	21	8	10
COc1cc(C)[nH]c(=O)c1CNC(=O)c1cc(Cl)c2c(c1C)OC(C)([C@@H]1CC[C@@H](N(C)C)CO1)O2 (stereo partly drawn) [Example 39, 7-Chloro-2-[(2S,5R)-5-(dimethylamino)tetrahydropyran-2-yl]-N-[(4-methoxy-6-methyl-2-oxo-1,2-dihydropyridin-3-yl)methyl]-2,4-dimethyl-1,3-benzodioxole-5-carboxamide]	14	40	2.2
CCc1cc(C)[nH]c(=O)c1CNC(=O)c1cc(-c2ccc(N3CCN(CC)CC3)nc2)c2c(c1C)OC(C)([C@H]1CC[C@H](N(C)C)CC1)O2 (relative stereo) [Example 73, 2-[trans-4-(Dimethylamino)cyclohexyl]-N-[(4-ethyl-6-methyl-2-oxo-1,2-dihydropyridin-3-yl)methyl]-7-[6-(4-ethylpiperazin-1-yl)-3-pyridyl]-2,4-dimethyl-1,3-benzodioxole-5-carboxamide hydrochloride]	22	12	6.1
